Measurements published in ChEMBL document CHEMBL1159305, “Vidalenolone, a novel phenolic metabolite from the tropical red alga Vidalia sp” (J Nat Prod, 2002).
Active and inactive are the calls of the source. No cut-off for these calls is given here.

What was measured:
[1] = target: Adapter molecule crk (Homo sapiens) (UniProt P46108); assay: Inhibition of GST-tagged human recombinant full length Crk SH2 domain expressed in Escherichia coli […] binding to biotinylated phosphotyrosine-containing peptide by ELISA
[2] = target: Tyrosine-protein kinase Fyn (Homo sapiens) (UniProt P06241); assay: Inhibition of GST-tagged human recombinant full length Fyn SH2 domain expressed in Escherichia coli […] binding to biotinylated phosphotyrosine-containing peptide by ELISA
[3] = target: Growth factor receptor-bound protein 2 (Homo sapiens) (UniProt P62993); assay: Inhibition of GST-tagged human recombinant full length Grb2 SH2 domain expressed in Escherichia coli […] binding to biotinylated phosphotyrosine-containing peptide by ELISA
[4] = target: Tyrosine-protein kinase ABL1 (Homo sapiens) (UniProt P00519); assay: Inhibition of GST-tagged human recombinant full length Abl SH2 domain expressed in Escherichia coli […] binding to biotinylated phosphotyrosine-containing peptide by ELISA
Tyrosine-protein kinase ABL1 (Homo sapiens), sequence (P00519 whole entry, the tested form may be a part): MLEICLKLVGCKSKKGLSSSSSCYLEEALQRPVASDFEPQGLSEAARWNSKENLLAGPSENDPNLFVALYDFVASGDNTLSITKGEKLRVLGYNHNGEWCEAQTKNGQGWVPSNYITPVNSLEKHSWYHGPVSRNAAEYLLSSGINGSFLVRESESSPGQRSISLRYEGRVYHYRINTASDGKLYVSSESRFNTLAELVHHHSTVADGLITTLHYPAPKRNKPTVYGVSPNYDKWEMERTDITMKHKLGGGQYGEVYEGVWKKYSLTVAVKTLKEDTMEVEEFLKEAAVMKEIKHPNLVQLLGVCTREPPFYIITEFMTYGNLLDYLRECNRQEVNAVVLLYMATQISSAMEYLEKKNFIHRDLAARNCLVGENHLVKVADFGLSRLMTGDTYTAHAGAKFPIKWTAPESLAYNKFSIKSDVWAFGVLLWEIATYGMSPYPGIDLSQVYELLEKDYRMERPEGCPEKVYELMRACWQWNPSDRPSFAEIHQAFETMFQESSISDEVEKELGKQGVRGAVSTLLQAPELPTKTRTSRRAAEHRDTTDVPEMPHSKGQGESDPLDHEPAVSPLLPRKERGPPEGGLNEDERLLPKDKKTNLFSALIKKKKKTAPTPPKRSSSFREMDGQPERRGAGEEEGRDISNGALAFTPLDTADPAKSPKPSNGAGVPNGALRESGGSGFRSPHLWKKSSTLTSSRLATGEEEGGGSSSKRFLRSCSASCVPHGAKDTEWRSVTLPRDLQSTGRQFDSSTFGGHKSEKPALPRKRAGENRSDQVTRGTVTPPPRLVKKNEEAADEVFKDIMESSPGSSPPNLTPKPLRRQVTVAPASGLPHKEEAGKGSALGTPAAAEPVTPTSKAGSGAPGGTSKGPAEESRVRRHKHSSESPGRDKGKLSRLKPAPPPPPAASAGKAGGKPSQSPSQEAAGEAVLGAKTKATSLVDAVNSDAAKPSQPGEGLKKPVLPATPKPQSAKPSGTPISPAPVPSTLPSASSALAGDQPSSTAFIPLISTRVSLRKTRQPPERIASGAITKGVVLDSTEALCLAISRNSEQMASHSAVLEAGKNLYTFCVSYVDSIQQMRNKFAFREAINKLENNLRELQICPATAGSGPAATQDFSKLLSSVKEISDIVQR

Adapter molecule crk (Homo sapiens), sequence (P46108 whole entry, the tested form may be a part): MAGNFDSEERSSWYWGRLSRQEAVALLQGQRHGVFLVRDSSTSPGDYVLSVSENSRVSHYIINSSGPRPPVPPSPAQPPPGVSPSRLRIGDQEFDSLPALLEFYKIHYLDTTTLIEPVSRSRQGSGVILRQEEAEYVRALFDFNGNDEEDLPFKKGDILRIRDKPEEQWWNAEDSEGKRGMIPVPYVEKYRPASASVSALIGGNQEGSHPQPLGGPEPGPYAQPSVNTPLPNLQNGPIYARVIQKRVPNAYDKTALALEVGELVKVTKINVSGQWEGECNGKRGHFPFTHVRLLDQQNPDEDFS
Tyrosine-protein kinase Fyn (Homo sapiens), sequence (P06241 2-537 limits assumed): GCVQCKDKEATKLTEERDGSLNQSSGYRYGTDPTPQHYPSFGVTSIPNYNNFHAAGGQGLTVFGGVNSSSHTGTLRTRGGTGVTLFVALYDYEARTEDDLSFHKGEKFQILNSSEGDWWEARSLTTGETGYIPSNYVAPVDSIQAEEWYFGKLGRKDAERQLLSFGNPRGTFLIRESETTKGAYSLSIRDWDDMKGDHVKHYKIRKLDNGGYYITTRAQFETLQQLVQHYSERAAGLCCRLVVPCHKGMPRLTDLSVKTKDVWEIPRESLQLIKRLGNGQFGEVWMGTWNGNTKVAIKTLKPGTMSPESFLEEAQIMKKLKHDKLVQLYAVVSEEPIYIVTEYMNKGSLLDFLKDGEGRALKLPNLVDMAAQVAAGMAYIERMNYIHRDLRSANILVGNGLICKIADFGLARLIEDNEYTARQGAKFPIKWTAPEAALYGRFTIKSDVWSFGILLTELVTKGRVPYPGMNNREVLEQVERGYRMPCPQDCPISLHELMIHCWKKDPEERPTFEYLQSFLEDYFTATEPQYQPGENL

Row | Activity [1] | Activity [2] | Activity [3] | Activity [4] | Structure (SMILES)
1 | inactive | inactive | inactive | inactive | OCc1ccc(O)cc1
2 | inactive | inactive | inactive | inactive | COC1(Cc2ccc(O)cc2)CC=C(O)C1=O (configuration not stated)
3 | inactive | inactive | inactive | inactive | CCOCc1cc(O)c(O)c(Br)c1Br
